In article PMC6151956 (Slas Discovery, 2018):
Where “and” joins values, the source holds several entries; their conditions need not be identical. Equal entries are not always repeated. Where two headings read alike, the source gives them in different places. One block for each compound: values may come before it.

Legend:
BTK in whole blood [1] = biological target: T1, BTK in whole blood (Homo sapiens, UniProt Q06187); assay: Stability of tirabrutinib-treated whole blood; format: cell-based
[2] = tested on: epidermal growth factor kinase (EGFR); conditions: cited from earlier work
[3] = tested on: interleukin-2-inducible T-cell kinase (ITK); conditions: cited from earlier work
TEC [4] = conditions: cited from earlier work
TEC [5] = conditions: cited from earlier work; remark: listed apart in the source
[6] = biological target: Recombinant full-length human BTK (rBTK) (Homo sapiens, UniProt Q06187); assay: TR-FRET BTK occupancy assay on recombinant BTK; format: binding
Sequence of Recombinant full-length human BTK (rBTK) (Q06187 whole entry): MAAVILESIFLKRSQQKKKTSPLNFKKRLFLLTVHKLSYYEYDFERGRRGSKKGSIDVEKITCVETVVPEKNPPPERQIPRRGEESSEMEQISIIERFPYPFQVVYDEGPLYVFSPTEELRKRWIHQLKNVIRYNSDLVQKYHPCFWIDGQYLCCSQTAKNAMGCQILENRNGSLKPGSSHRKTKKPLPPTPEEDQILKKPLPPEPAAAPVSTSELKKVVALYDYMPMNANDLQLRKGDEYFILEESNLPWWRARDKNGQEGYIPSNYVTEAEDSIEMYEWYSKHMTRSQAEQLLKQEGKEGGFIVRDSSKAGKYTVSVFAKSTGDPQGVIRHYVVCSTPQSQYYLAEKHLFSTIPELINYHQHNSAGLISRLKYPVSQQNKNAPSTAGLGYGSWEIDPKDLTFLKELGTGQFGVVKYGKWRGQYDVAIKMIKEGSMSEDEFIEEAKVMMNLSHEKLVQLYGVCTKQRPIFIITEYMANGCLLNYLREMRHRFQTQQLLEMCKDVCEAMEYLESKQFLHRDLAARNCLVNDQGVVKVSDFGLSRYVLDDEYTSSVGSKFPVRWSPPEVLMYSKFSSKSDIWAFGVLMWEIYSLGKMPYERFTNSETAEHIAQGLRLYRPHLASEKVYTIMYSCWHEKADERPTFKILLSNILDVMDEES

BTK in Ramos B cells = BTK in Ramos B cells (Homo sapiens, UniProt Q06187); assay: TR-FRET BTK occupancy assay in Ramos B cells; format: cell-based
Sequence of BTK in Ramos B cells (Q06187 whole entry): as above

BTK in human PBMCs = BTK in human PBMCs (Homo sapiens, UniProt Q06187); assay: TR-FRET BTK occupancy assay in purified human PBMCs from healthy volunteers; format: cell-based
Sequence of BTK in human PBMCs (Q06187 whole entry): as above

BTK in whole blood [7] = biological target: T1, BTK in whole blood; assay: TR-FRET BTK occupancy assay in whole blood from healthy volunteers; format: cell-based
[8] = biological target: BTK in BMMCs and PBMCs from patients with CLL (Homo sapiens, UniProt Q06187); format: cell-based; conditions: 110 nM tirabrutinib, 2 h ex vivo
Sequence of BTK in BMMCs and PBMCs from patients with CLL (Q06187 whole entry): as above

[9] = phase 1 clinical study, cited from earlier work

T1 sequence (Q06187 whole entry): as above

Compound: CC#CC(=O)N1CCC[C@H]1c1nc(-c2ccc(C(=O)Nc3ccccn3)cc2)c2c(N)nccn12 [acalabrutinib, reference compound]
BTK occupancy on storage at room temperature (BTK in whole blood [1]): effect of room temperature storage was also observed

Compound: C=CC(=O)N1CCC[C@@H](n2nc(-c3ccc(Oc4ccccc4)cc3)c3c(N)ncnc32)C1 [ibrutinib]
BTK selectivity versus EGFR [2]: 11 fold
BTK selectivity versus ITK [3]: 21 fold
BTK selectivity versus TEC (TEC [4]): 156 fold
Selectivity for BTK over TEC (TEC [5]): 5.6 fold

concentration at which full BTK occupancy was achieved [6]: 100 nM
concentration at which full BTK occupancy was achieved (BTK in Ramos B cells): 500 to 1000 nM
concentration at which full BTK occupancy was achieved (BTK in human PBMCs): 500 to 1000 nM
concentration at which full BTK occupancy was achieved (BTK in whole blood [7]): 500 to 1000 nM
BTK occupancy [8]: ~100% and > 80%
BTK occupancy on storage at room temperature (BTK in whole blood [1]; whole blood pretreated 2 h, then stored at room temperature (24 h and more)): significantly higher target occupancy
Compound: CC#CC(=O)N1CC[C@@H](n2c(=O)n(-c3ccc(Oc4ccccc4)cc3)c3c(N)ncnc32)C1 [tirabrutinib, Tirabrutinib]
BTK occupancy on storage at 4 °C (BTK in whole blood [1]; whole blood pretreated 2 h, then stored at 4 °C for up to 48 h): maintained at the same level for up to 48 h
response rate in CLL ([9]; CLL): 96%
response rate in MCL ([9]; MCL): 92%
response in nongerminal center DLBCL ([9]; nongerminal center DLBCL): 35%
